# Reference: US20150353495A1 (PORTOLA PHARMACEUTICALS, INC., priority 2010, published 2015)
# Structures can show the parent of a compound that is named as a salt.
# Assays:
# [1] = target: T1, JAK1 (Homo sapiens, UniProt P23458); assay: Z'-LYTE kinase assay JAK1; type: biochemical
# T1 construct: 5 μl of catalytic domain recombinant Kinase enzyme+Tyr peptide substrate (Invitrogen, CA); purchased Invitrogen
# In short: (§1)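 Z′-LYTE FRET, Tyr6 peptide, recombinant catalytic domain + ATP, 1 h RT, 1% DMSO final, duplicates; protease development 1 h RT; fluorescence read.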
# [2] = target: T2, JAK3 (Homo sapiens, UniProt P52333); assay: Z'-LYTE kinase assay JAK3; type: biochemical
# T2 construct: 5 μl of catalytic domain recombinant Kinase enzyme+Tyr peptide substrate (Invitrogen, CA); purchased Invitrogen
# In short: as §1
# [3] = target: T3, JAK2 (Homo sapiens, UniProt O60674); assay: Z'-LYTE kinase assay JAK2; type: biochemical
# T3 construct: 5 μl of catalytic domain recombinant Kinase enzyme+Tyr peptide substrate (Invitrogen, CA); purchased Invitrogen
# In short: as §1
# [4] = target: T4, TYK2 (Homo sapiens, UniProt P29597); assay: Z'-LYTE kinase assay TYK2; type: biochemical
# T4 construct: 5 μl of catalytic domain recombinant Kinase enzyme+Tyr peptide substrate (Invitrogen, CA); purchased Invitrogen
# T4 sequence (P29597 897-1176 limits assumed): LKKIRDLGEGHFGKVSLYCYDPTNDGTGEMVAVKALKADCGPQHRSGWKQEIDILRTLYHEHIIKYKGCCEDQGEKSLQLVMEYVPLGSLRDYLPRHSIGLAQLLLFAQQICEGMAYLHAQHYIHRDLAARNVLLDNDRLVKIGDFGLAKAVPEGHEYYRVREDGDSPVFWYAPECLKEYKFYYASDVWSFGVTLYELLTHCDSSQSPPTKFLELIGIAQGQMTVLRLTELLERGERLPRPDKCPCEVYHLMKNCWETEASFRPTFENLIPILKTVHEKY
# In short: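 IC50 derived by 4-parameter logistic fit of percent substrate phosphorylation relative to uninhibited wells. Tyr6 peptide phosphorylated by recombinant TYK2 catalytic domain for 1 h at room temperature (1% DMSO), cleaved by development protease 1 h, FRET emission ratio 445/520 nm.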
# [5] = test system: JAK1/3 signaling to STAT6 in Ramos B cells; assay: IL4 stimulation of JAK1/3 signaling to STAT6 in Ramos B cells (pSTAT6 Y641, FACS); type: cell-based; conditions: Homo sapiens; for inhibition at 1 µM: 1.0 uM compound, read-out: IL-4/STAT6 in Ramos Percent Inhibition at 1.0 uM; for inhibition at 0.2 µM: 0.2 uM compound, read-out: IL-4/STAT6 in Ramos Percent Inhibition at 0.2 uM
# Experimental: IL4 stimulation of JAK1/3 signaling to STATE in Ramos B cells:
# As an alternative strategy to measure effect of JAK3 inhibitors on JAK1/3 dependent cytokine signaling pathways, IL4 stimulation of the Ramos Burkett's B cell line is used. IL4 engages a receptor consisting of the IL4 receptor alpha chain and the common gamma chain. […] Ramos B cells are suspended in tissue culture media containing 10% fetal calf serum at 10×10̂6 cells/ml. 100 μl aliquots are pre-treated for 1 hour with various concentrations of compound, and then stimulated for 15 minutes with 15 ng IL4. The signaling reaction is terminated by fixing in 2% paraformaldehyde for 10 minutes at room temperature. Fixed cells are then washed and permeablized by suspension in 100% methanol at −80° C. Following overnight incubation at 4° C., cells are washed and resuspended in PBS containing 0.5% bovine serum albumin containing pSTAT6 Y641-PE conjugated antibody. After 1 hour incubation, cells are washed and the extent of STAT6 phosphorlyation in Ramos cells is measured by FACS analysis.
# T3 sequence (O60674 849-1124 limits assumed): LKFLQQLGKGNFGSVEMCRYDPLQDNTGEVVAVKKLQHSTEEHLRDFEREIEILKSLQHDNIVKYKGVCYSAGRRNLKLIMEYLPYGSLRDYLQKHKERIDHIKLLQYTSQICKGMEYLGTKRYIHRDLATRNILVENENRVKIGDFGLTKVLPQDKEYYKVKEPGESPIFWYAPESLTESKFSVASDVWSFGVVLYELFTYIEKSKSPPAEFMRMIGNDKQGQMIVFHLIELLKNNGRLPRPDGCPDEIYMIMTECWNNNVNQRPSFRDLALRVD
# T2 sequence (P52333 822-1111 limits assumed): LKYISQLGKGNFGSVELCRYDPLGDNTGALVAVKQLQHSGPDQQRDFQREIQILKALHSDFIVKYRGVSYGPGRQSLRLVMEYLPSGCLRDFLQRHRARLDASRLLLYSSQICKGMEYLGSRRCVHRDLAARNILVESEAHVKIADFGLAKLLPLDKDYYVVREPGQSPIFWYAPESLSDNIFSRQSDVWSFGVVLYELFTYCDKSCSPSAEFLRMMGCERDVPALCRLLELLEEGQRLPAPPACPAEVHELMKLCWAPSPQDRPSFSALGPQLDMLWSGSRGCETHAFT
# T1 sequence (P23458 875-1153 limits assumed): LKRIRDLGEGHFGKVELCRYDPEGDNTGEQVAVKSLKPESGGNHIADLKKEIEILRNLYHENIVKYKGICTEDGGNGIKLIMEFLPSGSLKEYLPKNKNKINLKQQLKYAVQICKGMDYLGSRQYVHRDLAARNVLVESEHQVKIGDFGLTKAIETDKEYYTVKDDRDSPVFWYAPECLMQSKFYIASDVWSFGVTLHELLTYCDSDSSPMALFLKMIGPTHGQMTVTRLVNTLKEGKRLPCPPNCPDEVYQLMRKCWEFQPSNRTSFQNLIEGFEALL
SMILES,IC50 [1],IC50 [2],IC50 [3],IC50 [4],inhibition at 1 µM [5],inhibition at 0.2 µM [5]
"C[N+]1(C)CCC(c2ccc(Nc3cc(NCc4cccc(F)c4)c(C(N)=O)cn3)cc2)CC1 [Example 78, 4-(4-(5-carbamoyl-4-(3-fluorobenzylamino)pyridin-2-ylamino)phenyl)-1,1-dimethylpiperidinium formate]",100 to 1000 nM,1 to 10 nM,10 to 100 nM,100 to 1000 nM,14%,–
"CNC(=O)[C@@H]1CCCN(c2ccc(Nc3cc(N[C@H](C)c4ccccc4)c(C(N)=O)cn3)cc2)C1 [Example 8, 6-(4-((R)-3-(methylcarbamoyl)piperidin-1-yl)phenylamino)-4-((R)-1-phenylethylamino)nicotinamide]",100 to 1000 nM,1 to 10 nM,100 to 1000 nM,> 1000 nM,30%,8%
"NC(=O)c1cnc(Nc2ccc(N3CCOCC3)c(Cl)c2)cc1NCc1ccccc1 [Example 251, 4-(benzylamino)-6-(3-chloro-4-morpholinophenylamino)nicotinamide]",> 1000 nM,10 to 100 nM,100 to 1000 nM,> 1000 nM,51%,17%
"NC(=O)c1cnc(Nc2ccc(N3CCCCC3)cc2)cc1NCc1ccccc1F [Example 74, 4-(2-fluorobenzylamino)-6-(4-(piperidin-1-yl)phenylamino)nicotinamide]",> 1000 nM,10 to 100 nM,100 to 1000 nM,100 to 1000 nM,43%,21%
"NC(=O)c1cnc(Nc2cccc(N3CCOCC3)c2)cc1NCc1cccc(F)c1 [Example 65, 4-(3-fluorobenzylamino)-6-(3-morpholinophenylamino)nicotinamide]",100 to 1000 nM,1 to 10 nM,10 to 100 nM,> 1000 nM,49%,28%
"NC(=O)c1cnc(Nc2ccc(N3CCCCC3=O)cc2)cc1NCc1cc(F)ccc1F [Example 94, 4-(2,5-difluorobenzylamino)-6-(4-(2-oxopiperidin-1-yl)phenylamino)nicotinamide]",100 to 1000 nM,1 to 10 nM,10 to 100 nM,100 to 1000 nM,62%,35%
"NC(=O)c1cnc(Nc2ccc(C3CCN(C4CCCC4)CC3)cc2)cc1NCc1ccccc1F [Example 109, 6-(4-(1-cyclopentylpiperidin-4-yl)phenylamino)-4-(2-fluorobenzylamino)nicotinamide]",100 to 1000 nM,1 to 10 nM,100 to 1000 nM,100 to 1000 nM,60%,23%
"COc1cccc(Nc2cc(NCc3ccccc3)c(C(N)=O)cn2)c1 [Example 11, 4-(benzylamino)-6-(3-methoxyphenylamino)nicotinamide]",> 1000 nM,10 to 100 nM,> 1000 nM,> 1000 nM,15%,11%
"CNC(=O)[C@H]1CCCN(c2ccc(Nc3cc(NCc4ccccc4)c(C(N)=O)cn3)cc2)C1 [Example 4, (S)-4-(benzylamino)-6-(4-(3-(methylcarbamoyl)piperidin-1-yl)phenylamino)nicotinamide]",100 to 1000 nM,1 to 10 nM,100 to 1000 nM,100 to 1000 nM,68%,32%
"NC(=O)c1cnc(Nc2ccc(N3CCOCC3)cc2)cc1NCc1ccccc1F [Example 73, 4-(2-fluorobenzylamino)-6-(4-morpholinophenylamino)nicotinamide]",100 to 1000 nM,1 to 10 nM,10 to 100 nM,100 to 1000 nM,53%,23%
"NC(=O)c1cnc(Nc2ccc(C(=O)N3CCC3)cc2)cc1NCc1ccccc1 [Example 46, 6-(4-(azetidine-1-carbonyl)phenylamino)-4-(benzylamino)nicotinamide]",100 to 1000 nM,1 to 10 nM,100 to 1000 nM,100 to 1000 nM,80%,54%
"CC(=O)N1CCN(c2ccc(Nc3cc(NCc4ccccc4)c(C(N)=O)cn3)cc2)CC1 [Example 3, 6-(4-(4-acetylpiperazin-1-yl)phenylamino)-4-(benzylamino)nicotinamide]",100 to 1000 nM,10 to 100 nM,10 to 100 nM,100 to 1000 nM,43%,22%
"CC(=O)N1CCN(c2ccc(Nc3cc(NCc4ccccc4)c(C(N)=O)cn3)cc2C)CC1 [Example 5, 6-(4-(4-acetylpiperazin-1-yl)-3-methylphenylamino)-4-(benzylamino)nicotinamide]",100 to 1000 nM,1 to 10 nM,100 to 1000 nM,100 to 1000 nM,61%,37%
"NC(=O)c1cnc(Nc2cccc(N3CCOCC3)c2)cc1NCc1ccccc1 [Example 31, 4-(benzylamino)-6-(3-morpholinophenylamino)nicotinamide]",100 to 1000 nM,1 to 10 nM,100 to 1000 nM,100 to 1000 nM,50%,27%
"CNC(=O)c1cccc(Nc2cc(NCc3ccccc3)c(C(N)=O)cn2)c1 [Example 246, 4-(benzylamino)-6-(3-(methylcarbamoyl)phenylamino)nicotinamide]",100 to 1000 nM,10 to 100 nM,100 to 1000 nM,> 1000 nM,11%,6%
"NC(=O)c1cnc(Nc2ccc(C(=O)N3CCCC3)cc2)cc1NCC1CCCC1 [Example 41, 4-(cyclopentylmethylamino)-6-(4-(pyrrolidine-1-carbonyl)phenylamino)nicotinamide]",100 to 1000 nM,10 to 100 nM,100 to 1000 nM,10 to 100 nM,59%,31%
"NC(=O)c1cnc(Nc2ccc(N3CCCCC3=O)cc2)cc1NCc1cccc(F)c1 [Example 64, 4-(3-fluorobenzylamino)-6-(4-(2-oxopiperidin-1-yl)phenylamino)nicotinamide]",100 to 1000 nM,1 to 10 nM,10 to 100 nM,100 to 1000 nM,50%,32%
"N#CCC(=O)N1CCC(c2ccc(Nc3cc(NCc4ccccc4F)c(C(N)=O)cn3)cc2)CC1 [Example 117, 6-(4-(1-(2-cyanoacetyl)piperidin-4-yl)phenylamino)-4-(2-fluorobenzylamino)nicotinamide]",100 to 1000 nM,1 to 10 nM,100 to 1000 nM,100 to 1000 nM,67%,43%
"CC(=O)N1CCN(c2ccc(Nc3cc(NCc4ccccc4F)c(C(N)=O)cn3)cc2)CC1 [Example 258, 6-(4-(4-acetylpiperazin-1-yl)phenylamino)-4-(2-fluorobenzylamino)nicotinamide]",100 to 1000 nM,1 to 10 nM,10 to 100 nM,100 to 1000 nM,63%,39%
"NC(=O)c1cnc(Nc2cccc(OCCN3CCCC3)c2)cc1NCc1ccccc1F [Example 72, 4-(2-fluorobenzylamino)-6-(3-(2-(pyrrolidin-1-yl)ethoxy)phenylamino)nicotinamide]",100 to 1000 nM,1 to 10 nM,100 to 1000 nM,100 to 1000 nM,54%,27%
"NC(=O)c1cnc(Nc2ccc(N3CCCCC3)cc2)cc1N[C@H](CO)c1ccccc1 [Example 75, (S)-4-(2-hydroxy-1-phenylethylamino)-6-(4-(piperidin-1-yl)phenylamino)nicotinamide]",> 1000 nM,10 to 100 nM,> 1000 nM,> 1000 nM,26%,11%
"CC(=O)N1CCC(c2ccc(Nc3cc(NCc4ccccc4F)c(C(N)=O)cn3)cc2)CC1 [Example 115, 6-(4-(1-acetylpiperidin-4-yl)phenylamino)-4-(2-fluorobenzylamino)nicotinamide]",100 to 1000 nM,10 to 100 nM,100 to 1000 nM,100 to 1000 nM,64%,31%
